Here are results for seven compounds from patent US20250114345A1, “COMPOUNDS AND COMPOSITIONS AS CBP/P300 DEGRADERS AND USES THEREOF” (Oncopia Therapeutics, Inc. d/b/a/ SK Life Science Labs, priority 2023, published 2025).

The structures appear in SMILES notation. Where only a bound is given, the exact number is not on record here.

The assay deals with T1, p300 (Homo sapiens, UniProt Q09472).
T1 construct: host or cells: A549 P300 HiBit cells
The assay is described as follows: P300 degradation, HiBit technology in A549 P300 HiBit cells (2 h). The format is cell-based. Conditions: 2 hrs post treatment; for Dmax: A549, A549 P300 HiBit cells; for DC50: A549 P300 HiBit cells. In a few lines: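 Endogenously HiBiT-tagged A549 cells are plated, left overnight, then treated with a compound dilution series at 37 °C and 5% CO2. At the set time, lytic detection buffer is added and plates are shaken 10 min at room temperature before luminescence is measured to derive potency and Dmax.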

T1 sequence (Q09472 whole entry): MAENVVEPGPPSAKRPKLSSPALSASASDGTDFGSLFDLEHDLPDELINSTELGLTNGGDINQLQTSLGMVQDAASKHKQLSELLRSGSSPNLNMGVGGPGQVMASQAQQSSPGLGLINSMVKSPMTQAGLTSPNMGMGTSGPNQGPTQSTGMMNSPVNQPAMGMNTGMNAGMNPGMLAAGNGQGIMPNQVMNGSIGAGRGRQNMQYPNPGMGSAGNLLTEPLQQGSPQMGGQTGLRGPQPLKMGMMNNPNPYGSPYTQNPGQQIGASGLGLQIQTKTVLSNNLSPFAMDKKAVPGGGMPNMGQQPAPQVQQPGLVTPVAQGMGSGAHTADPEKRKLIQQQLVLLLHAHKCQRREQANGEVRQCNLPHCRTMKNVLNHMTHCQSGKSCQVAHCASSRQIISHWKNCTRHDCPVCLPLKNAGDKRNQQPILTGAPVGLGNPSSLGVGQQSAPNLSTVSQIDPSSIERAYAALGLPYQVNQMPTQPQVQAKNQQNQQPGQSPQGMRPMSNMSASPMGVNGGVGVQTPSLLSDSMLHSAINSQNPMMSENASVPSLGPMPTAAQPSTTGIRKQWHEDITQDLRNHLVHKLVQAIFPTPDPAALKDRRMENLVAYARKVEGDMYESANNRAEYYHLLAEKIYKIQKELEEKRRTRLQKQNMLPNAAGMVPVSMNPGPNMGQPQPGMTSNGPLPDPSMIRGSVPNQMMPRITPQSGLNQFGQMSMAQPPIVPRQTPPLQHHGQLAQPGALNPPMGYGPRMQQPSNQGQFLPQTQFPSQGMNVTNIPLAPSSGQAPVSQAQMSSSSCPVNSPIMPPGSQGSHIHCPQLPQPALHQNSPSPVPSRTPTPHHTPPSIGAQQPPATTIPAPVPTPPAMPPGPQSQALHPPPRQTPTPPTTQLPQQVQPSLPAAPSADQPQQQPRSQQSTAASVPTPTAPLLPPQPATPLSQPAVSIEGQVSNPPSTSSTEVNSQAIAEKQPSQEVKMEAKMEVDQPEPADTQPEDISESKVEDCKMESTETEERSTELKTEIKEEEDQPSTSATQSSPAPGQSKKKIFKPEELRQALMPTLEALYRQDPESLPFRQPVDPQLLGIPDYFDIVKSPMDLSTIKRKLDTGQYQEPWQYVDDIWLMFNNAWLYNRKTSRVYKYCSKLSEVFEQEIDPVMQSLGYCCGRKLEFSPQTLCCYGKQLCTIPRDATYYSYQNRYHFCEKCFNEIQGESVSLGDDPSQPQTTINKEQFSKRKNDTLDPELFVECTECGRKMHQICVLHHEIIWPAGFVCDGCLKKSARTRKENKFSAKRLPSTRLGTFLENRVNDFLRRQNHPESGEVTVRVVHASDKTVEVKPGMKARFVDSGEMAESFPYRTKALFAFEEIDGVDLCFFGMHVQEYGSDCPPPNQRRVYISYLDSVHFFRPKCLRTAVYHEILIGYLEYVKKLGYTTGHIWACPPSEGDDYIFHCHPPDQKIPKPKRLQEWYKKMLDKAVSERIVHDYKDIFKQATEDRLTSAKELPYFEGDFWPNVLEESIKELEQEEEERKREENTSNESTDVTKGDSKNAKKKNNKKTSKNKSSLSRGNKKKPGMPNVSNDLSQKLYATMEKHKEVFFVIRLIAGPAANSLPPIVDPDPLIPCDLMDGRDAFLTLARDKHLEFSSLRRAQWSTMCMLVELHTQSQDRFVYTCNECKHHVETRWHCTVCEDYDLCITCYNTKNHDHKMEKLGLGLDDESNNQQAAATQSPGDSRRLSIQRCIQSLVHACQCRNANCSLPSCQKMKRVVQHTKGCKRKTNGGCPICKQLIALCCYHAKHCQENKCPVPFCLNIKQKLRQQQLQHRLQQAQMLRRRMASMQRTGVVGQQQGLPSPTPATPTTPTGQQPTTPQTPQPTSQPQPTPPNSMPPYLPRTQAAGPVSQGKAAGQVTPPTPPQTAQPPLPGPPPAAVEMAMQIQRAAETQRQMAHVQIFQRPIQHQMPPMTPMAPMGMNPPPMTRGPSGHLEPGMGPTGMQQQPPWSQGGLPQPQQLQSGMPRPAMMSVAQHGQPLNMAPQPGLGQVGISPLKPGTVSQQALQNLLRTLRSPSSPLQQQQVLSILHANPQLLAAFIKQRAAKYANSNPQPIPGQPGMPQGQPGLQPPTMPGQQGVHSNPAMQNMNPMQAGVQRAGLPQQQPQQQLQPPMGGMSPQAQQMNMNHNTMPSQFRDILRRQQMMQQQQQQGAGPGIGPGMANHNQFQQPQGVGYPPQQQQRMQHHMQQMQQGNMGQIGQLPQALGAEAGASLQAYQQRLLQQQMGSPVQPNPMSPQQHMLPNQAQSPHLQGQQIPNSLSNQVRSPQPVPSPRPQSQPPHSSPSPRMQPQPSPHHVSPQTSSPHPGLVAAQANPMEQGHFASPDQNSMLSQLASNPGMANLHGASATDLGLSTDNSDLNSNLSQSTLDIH

For `CC(C)c1cc(-c2ncc(N(C)c3cc(C(C)C)c4c(c3)n(C)c(=O)n4C)cn2)cnc1C(=O)NCC#Cc1ccc2occ(C3CCC(=O)NC3=O)c2c1` (centres unmarked) [Example A71, N-(3-(3-(2,6-dioxopiperidin-3-yl)benzofuran-5-yl)prop-2-yn-1-yl)-3-isopropyl-5-(5-((7-isopropyl-1,3-dimethyl-2-oxo-2,3-dihydro-1H-benzo[d]imidazol-5-yl)(methyl)amino)pyrimidin-2-yl)picolinamide], the Dmax was above 80% and the DC50 fell in the range of 1 to 9.9 nM.

`Cn1c(=O)n(C)c2cc(-c3cccc4cc(-c5cnc(C(=O)NCC#Cc6ccc7occ(C8CCC(=O)NC8=O)c7c6)c(Cl)c5)ncc34)ccc21` (centres unmarked) [Example A73, 3-chloro-5-(8-(1,3-dimethyl-2-oxo-2,3-dihydro-1H-benzo[d]imidazol-5-yl)isoquinolin-3-yl)-N-(3-(3-(2,6-dioxopiperidin-3-yl)benzofuran-5-yl)prop-2-yn-1-yl)picolinamide]: the Dmax is above 80% and the half-maximal degradation concentration (DC50) was in the range of 1 to 9.9 nM.

As to `Cc1cc(-c2ncc(N(C)c3cc4c(c(C(C)C)n3)n(C)c(=O)n4C)cn2)cnc1C(=O)NCC#Cc1ccc2occ(C3CCC(=O)NC3=O)c2c1` (centres unmarked) [Example A74, N-(3-(3-(2,6-dioxopiperidin-3-yl)benzofuran-5-yl)prop-2-yn-1-yl)-5-(5-((4-isopropyl-1,3-dimethyl-2-oxo-2,3-dihydro-1H-imidazo[4,5-c]pyridin-6-yl)(methyl)amino)pyrimidin-2-yl)-3-methylpicolinamide], the Dmax is below 20% and the half-maximal degradation concentration (DC50) was above 1000 nM.

The compound `CC(C)c1nc(N2CCCc3nc(-c4ccc(C(=O)NCC#Cc5ccc6occ(C7CCC(=O)NC7=O)c6c5)nc4)ncc32)cc2c1n(C)c(=O)n2C` (centres unmarked) [Example A76, N-(3-(3-(2,6-dioxopiperidin-3-yl)benzofuran-5-yl)prop-2-yn-1-yl)-5-(5-(4-isopropyl-1,3-dimethyl-2-oxo-2,3-dihydro-1H-imidazo[4,5-c]pyridin-6-yl)-5,6,7,8-tetrahydropyrido[3,2-d]pyrimidin-2-yl)picolinamide] had a maximal degradation (Dmax) below 20% and a half-maximal degradation concentration (DC50) above 1000 nM.

In the case of `CCn1c(=O)n(C)c2c(C)cc(N3CCOc4nc(-c5ccc(C(=O)NCC#Cc6ccc7occ(C8CCC(=O)NC8=O)c7c6)nc5)ncc43)cc21` (centres unmarked) [Example A77, N-(3-(3-(2,6-dioxopiperidin-3-yl)benzofuran-5-yl)prop-2-yn-1-yl)-5-(5-(3-ethyl-1,7-dimethyl-2-oxo-2,3-dihydro-1H-benzo[d]imidazol-5-yl)-6,7-dihydro-5H-pyrimido[4,5-b][1,4]oxazin-2-yl)picolinamide], the Dmax is 60 to 79% and the 50% degradation concentration (DC50) is 1 to 9.9 nM.

With `Cn1c(=O)n(C)c2c(C3CCOCC3)nc(N3CCCc4nc(-c5ccc(C(=O)NCC#Cc6ccc7occ(C8CCC(=O)NC8=O)c7c6)nc5)ncc43)cc21` (centres unmarked) [Example A78, 5-(5-(1,3-dimethyl-2-oxo-4-(tetrahydro-2H-pyran-4-yl)-2,3-dihydro-1H-imidazo[4,5-c]pyridin-6-yl)-5,6,7,8-tetrahydro-pyrido[3,2-d]pyrimidin-2-yl)-N-(3-(3-(2,6-dioxopiperidin-3-yl)benzofuran-5-yl)prop-2-yn-1-yl)picolinamide], the Dmax is below 20% and the DC50 is above 1000 nM.

Consider `Cc1cc(-c2ncc(N(C)c3cc(N4CCOCC4)c4oc(=O)n(C)c4c3)cn2)cnc1C(=O)NCC#Cc1ccc2occ(C3CCC(=O)NC3=O)c2c1` (centres unmarked) [Example A80, N-(3-(3-(2,6-dioxo-piperidin-3-yl)benzofuran-5-yl)prop-2-yn-1-yl)-3-methyl-5-(5-(methyl (3-methyl-7-morpholino-2-oxo-2,3-dihydrobenzo [d]oxazol-5-yl)amino)pyrimidin-2-yl)picolinamide], for which the greatest degradation seen (Dmax) was below 20% and the DC50 was above 1000 nM.
